Measured values taken from PubChem BioAssay (NCI).
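Where inhibition never reached the appropriate level, the endpoint shown equals the highest concentration tested. Otherwise, values were interpolated linearly from a five-concentration, 48-hour dose response in 96-well plates. At the GI50, growth is halved. TGI denotes the concentration required for complete inhibition of growth.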

Experiments:
Assay in all cases: inhibition of tumour cell growth, NCI panel, 48 h
[1] = test system: NCI-H226 lung
[2] = test system: NCI-H23 lung
[3] = test system: NCI-H460 lung
[4] = test system: NCI-H522 lung
[5] = test system: NCI/ADR-RES ovarian
[6] = test system: OVCAR-3 ovarian
[7] = test system: OVCAR-4 ovarian
[8] = test system: OVCAR-5 ovarian
[9] = test system: OVCAR-8 ovarian
[10] = test system: PC-3 prostate
[11] = test system: RPMI-8226 leukemia
[12] = test system: RXF 393 renal
[13] = test system: SF-268 CNS
[14] = test system: SF-295 CNS
[15] = test system: SF-539 CNS
[16] = test system: SK-MEL-2 melanoma
[17] = test system: SK-MEL-28 melanoma
[18] = test system: SK-MEL-5 melanoma
[19] = test system: SK-OV-3 ovarian
[20] = test system: SN12C renal
[21] = test system: SNB-19 CNS
[22] = test system: SNB-75 CNS
[23] = test system: SR leukemia
[24] = test system: SW-620 colon
[25] = test system: T-47D breast
[26] = test system: TK-10 renal
[27] = test system: U251 CNS
[28] = test system: UACC-257 melanoma
[29] = test system: UACC-62 melanoma
[30] = test system: UO-31 renal

`COc1ccc(C=Nc2c(C(=O)Nc3cccc(Cl)c3C)sc3nc(C)c(C(=O)/C=C/c4ccc(OC)cc4)cc23)cc1` showed a TGI [1] of 11.7 µM, a GI50 [2] of 0.917 µM and a TGI [2] of 17.1 µM. For the same molecule, the GI50 [3] was 1.93 µM, the TGI [3] was > 29.7 µM and the GI50 [4] was 0.157 µM. The GI50 [5] was 0.197 µM, the TGI [5] was 1.17 µM and the GI50 [6] was 0.267 µM. For the same molecule, the TGI [6] was 5.95 µM, the TGI [7] was > 50 µM and the GI50 [8] was 2.04 µM. For the same molecule, the TGI [8] was > 50 µM, the GI50 [9] was 1.38 µM and the TGI [9] was > 50 µM. The GI50 [10] was 0.281 µM, the TGI [10] was > 50 µM and the GI50 [11] was 1.5 µM. The TGI [11] was > 50 µM, the GI50 [12] was 0.163 µM and the TGI [12] was 0.906 µM. For the same molecule, the GI50 [13] was 1.6 µM, the TGI [13] was > 50 µM and the GI50 [14] was 0.362 µM. For the same molecule, the TGI [14] was 8.43 µM, the GI50 [15] was 0.449 µM and the TGI [15] was 2.41 µM. It also gave a GI50 [16] of 0.98 µM, a TGI [16] of 36.1 µM and a GI50 [17] of 0.288 µM. The TGI [17] was > 50 µM, the GI50 [18] was 0.856 µM and the TGI [18] was > 50 µM. The GI50 [19] was 0.958 µM, the TGI [19] was > 50 µM and the GI50 [20] was 0.853 µM. For the same molecule, the TGI [20] was > 50 µM, the GI50 [21] was 1.58 µM and the TGI [21] was 28.3 µM. For the same molecule, the GI50 [22] was 0.191 µM, the TGI [22] was 1.88 µM and the GI50 [23] was 0.421 µM. For the same molecule, the TGI [23] was > 50 µM, the GI50 [24] was 0.412 µM and the TGI [24] was > 50 µM. The GI50 [25] was 1.28 µM, the TGI [25] was > 50 µM and the GI50 [26] was 4.12 µM. For the same molecule, the TGI [26] was > 50 µM, the GI50 [27] was 1.56 µM and the TGI [27] was 18.4 µM. The GI50 [28] was 2.88 µM, the TGI [28] was > 50 µM and the GI50 [29] was 0.312 µM. For the same molecule, the TGI [29] was > 23.1 µM, the GI50 [30] was 2.04 µM and the TGI [30] was > 50 µM.
